The values that follow come from US4464388A, “Use of prostaglandin analogues to treat cytodamage” (priority 1982, dated 1984).

Read-outs that look alike come from different tables or passages of the source.

A word on the LD50: it is the dose expected to kill half of the subjects tested. A lower LD50 goes with a more toxic substance.

One data set is described as follows: Acute toxicity test. As to conditions: mouse, in vivo; oral, mice observed for 14 days. As to the method: Male JCL-ICR mice (non SPF mice) from 7 weeks of age were used. The compound under test was dissolved in 5% v/v ethanol containing 0.4% w/v Tween 80 (Tween is a registered trademark) and administered orally to the mice. […] The deaths observed were all within 72 hrs after treatment.

Data set [1] deals with carbon tetrachloride (CCl4) induced liver damage. The data set can be described thus: Effect on carbon tetrachloride (CCl4) induced liver damage (liver cell necrosis type). The conditions noted are these: for inhibition in vivo at 0.1 mg/kg / inhibition in vivo at 0.05 mg/kg / inhibition in vivo at 1 mg/kg / inhibition in vivo at 0.5 mg/kg / inhibition in vivo at 1.5 mg/kg / inhibition in vivo at 0.02 mg/kg: Rattus norvegicus, 24 h; for inhibition in vivo at 0.05 mg/kg: 50 μg/kg; for inhibition in vivo at 1 mg/kg: 1000 μg/kg; for inhibition in vivo at 0.5 mg/kg: 500 μg/kg; for inhibition in vivo at 1.5 mg/kg: 1500 μg/kg; for inhibition in vivo at 0.02 mg/kg: 20 μg/kg. The data set is classed as in vivo, Male Wistar rats. The method, then:
Effect on carbon tetrachloride (CCl4) induced liver damage (liver cell necrosis type)
Male Wistar rats weighing 180-220 g were used. Rats were dosed intraperitoneally with CCl4 dissolved in olive oil (5%, w/v) at a volume of 500 μl/kg after 18 hr starvation. The compound under test was administered orally (p.o.) or subcutaneously (s.c.) 6 and 12 hr after CCl4 injection in rats and blood was collected after 24 hr. Plasma glutamic oxaloacetic transaminase (GOT) and glutamic pyruvic transaminase (GPT) activities were determined by ultraviolet absorbance methods (optimised method based on the recommendations of the Deutsche Gesellschaft fur Klinische Chemie). The effects of the compounds tested were assessed by the inhibition rate in comparison with controls. Inhibition rate was calculated by the following formula. [formula] The results obtained are shown in the following Tables 1A and 1B for compounds of the general formula: [drawing 10] wherein R, R^1 and --X--Y--Z-- have the meanings indicated.
In Tables 1A, 1B and 2 to 5 hereinafter the dose shown in the amount given at each administration of the compound under test.

Data set [2] relates to blood platelet aggregation. The conditions noted are these: cited from earlier work.
The test system of a further data set is artery. As to conditions: cited from earlier work.
Where [3] appears, read: po, p.o., 100 μg/kg, plasma GOT after 24 hr, read-out: inhibition rate GOT.
Where [4] appears, read: po, p.o., 100 μg/kg, plasma GPT after 24 hr, read-out: inhibition rate GPT.
The mark [5] stands for this setting: sc, s.c., plasma GOT after 24 hr, read-out: inhibition rate GOT.
Setting [6] is: sc, s.c., plasma GPT after 24 hr, read-out: inhibition rate GPT.
Where [7] appears, read: po, p.o., plasma GOT after 24 hr, read-out: inhibition rate GOT.
[8] abbreviates: po, p.o., plasma GPT after 24 hr, read-out: inhibition rate GPT.

On to `COC(=O)CCCCC(=O)C[C@H]1C(=O)C[C@@H](O)[C@@H]1/C=C/[C@@H](O)C1CCCC1` [Compound 3, 15-Cyclopentyl-16,17,18,19,20-pentanor-6-oxo-PGE1 methyl ester], for which the 50% lethal dose (LD50) at 336 h in the data set “Acute toxicity test” lay within 10 to 20 mg/kg. Further, the values for the inhibition in vivo at 0.1 mg/kg in data set [1] (setting [3]) and in data set [1] (setting [4]) were 19% and 30.5%, respectively.

In the case of `CCC1CC([C@H](O)/C=C/[C@H]2[C@H](O)CC(=O)[C@@H]2CC(=O)CCCCC(=O)OC)C1` (stereo partly shown) [Compound 1, 15-(3-Ethylcyclobutyl)-16,17,18,19 20-pentanor-6-oxo-PGE1 methyl ester], the inhibition in vivo at 0.05 mg/kg in data set [1] (setting [5]) came out at 21%; in data set [1] (setting [6]) it was 0%.

For `CCCC1CCC([C@H](O)/C=C/[C@@H]2[C@H]3C[C@H](CCCCC(=O)OC)O[C@H]3C[C@H]2O)C1` (stereo partly drawn) [Compound 17, (6S)-15-(3-propylcyclopentyl)-16,17,18,19,20-pentanor-PGI1 methyl ester], the inhibition in vivo at 1 mg/kg in data set [1] (setting [7]) amounted to 32.9%; in data set [1] (setting [8]) it was 32%.

Regarding `CCCC1CCC([C@H](O)/C=C/[C@H]2[C@H](O)CC(=O)[C@@H]2CC(=O)CCCCC(=O)OC)C1` (single isomer, unassigned) [Compound 12, 15-(3-Propylcyclopentyl)-16,17,18,19,20-pentanor-6-oxo-PGE1 methyl ester], in data set [1] (p.o., 100 μg/kg, plasma GOT after 24 hr), the “inhibition rate GOT” value came to 25.4%. Moreover, the “inhibition rate GPT” value in data set [1] (p.o., 100 μg/kg, plasma GPT after 24 hr) came to 22.2%.

`CCCC1CCC([C@H](O)/C=C/[C@@H]2[C@H]3CC(CCCCC(=O)OC)=N[C@H]3C[C@H]2O)C1` (single isomer, unassigned) [Compound 14, 15-(3-Propylcyclopentyl)-16,17,18,19,20-pentanor-6,9α-nitrilo-PGI1 methyl ester]: the LD50 at 336 h in the data set “Acute toxicity test” was 40 to 100 mg/kg. Moreover, the inhibition in vivo at 0.5 mg/kg was determined as 39.8% in data set [1] (setting [7]), 20.8% in data set [1] (setting [8]), 68.6% in data set [1] (setting [5]) and 64.2% in data set [1] (setting [6]).

For `CCCC1CCC([C@H](O)/C=C/[C@@H]2[C@H]3CC(CCCCC(=O)OC)=N[C@H]3C[C@H]2O)C1` (stereo partly drawn) [Compound 13, 15-(3-Propylcyclopentyl)-16,17,18,19,20-pentanor-6,9α-nitrilo-PGI1 methyl ester], the inhibition in vivo at 1 mg/kg amounted to 46% in data set [1] (setting [7]) and 32.5% in data set [1] (setting [8]).

Turning to `CCCC1CCC([C@H](O)/C=C/[C@@H]2[C@H]3CC(CCCCC(=O)OC)O[C@H]3C[C@H]2O)C1` (stereo partly shown) [Compound 16, 15-(3-Propylcyclopentyl)-16,17,18,19,20-pentanor-PGI1 methyl ester], the inhibition in vivo at 1.5 mg/kg was determined as 51% in data set [1] (setting [7]) and 53% in data set [1] (setting [8]).

Consider `CCCCC1CCC([C@H](O)/C=C/[C@H]2[C@H](O)CC(=O)[C@@H]2CC(=O)CCCCC(=O)OC)C1` (stereo partly shown) [Compound 7, 15-(3-Butylcyclopentyl)-16,17,18,19,20-pentanor-6-oxo-PGE1 methyl ester], for which the inhibition in vivo at 0.1 mg/kg was found to be 62.7% in data set [1] (setting [3]) and 55.1% in data set [1] (setting [4]).

As for `CCCC1CCC([C@H](O)/C=C/[C@H]2[C@H](O)CC(=O)[C@@H]2CC(=O)CCCCC(=O)O)C1` (stereo partly shown) [Compound 5, 15-(3-Propylcyclopentyl)-16,17,18,19,20-pentanor-6-oxo-PGE1], the inhibition in vivo at 0.1 mg/kg in data set [1] (setting [3]) came out at 32.6%; in data set [1] (setting [4]), 44.5%.

As to `CCCCC[C@H](O)/C=C/[C@H]1O[C@H]2C[C@H](O2)[C@@H]1C/C=C\CCCC(=O)O` [thromboxane A2], the “effect on blood platelet aggregation” value in data set [2] was “aggregating activity”. In the data set on artery, the “activity on the artery” value is on record as “contracting activity”.

`CCCC1CCC([C@H](O)/C=C/[C@H]2[C@H](O)CC(=O)[C@@H]2CC(=O)CCCCC(=O)OC)C1` (stereo partly shown) [Compound 4, 15-(3-Propylcyclopentyl)-16,17,18,19,20-pentanor-6-oxo-PGE1 methyl ester]: the inhibition in vivo at 0.1 mg/kg in data set [1] (setting [3]) stood at 77%; in data set [1] (setting [4]) it was 51.5%.

Consider `CCCCC1CCC([C@H](O)/C=C/[C@H]2[C@H](O)CC(=O)[C@@H]2CC(=O)CCCCC(=O)OC)C1` (single isomer, unassigned) [Compound 8, 15-(3-Butylcyclopentyl)-16,17,18,19,20-pentanor-6-oxo-PGE1 methyl ester], for which the LD50 at 336 h in the data set “Acute toxicity test” fell in the range of 10 to 20 mg/kg. Further, the figures for the inhibition in vivo at 0.1 mg/kg in data set [1] (setting [3]) and in data set [1] (setting [4]) were 77.7% and 73.7%, respectively. Moreover, the results for the inhibition in vivo at 0.02 mg/kg in data set [1] (setting [5]) and in data set [1] (setting [6]) were 44.4% and 39.3%, respectively.

In the case of `CCCC1CC([C@H](O)/C=C/[C@H]2[C@H](O)CC(=O)[C@@H]2CC(=O)CCCCC(=O)OC)C1` (stereo partly shown) [Compound 2, 15-(3-Propylcyclobutyl)-16,17,18,19,20-pentanor-6-oxo-PGE1 methyl ester], the inhibition in vivo at 0.05 mg/kg is 52.4% in data set [1] (setting [5]) and 17.3% in data set [1] (setting [6]).

`CCCCC1CCC([C@H](O)/C=C/[C@@H]2[C@H]3CC(CCCCC(=O)OC)=N[C@H]3C[C@H]2O)C1` (stereo partly drawn) [Compound 15, 15-(3-Butylcyclopentyl)-16,17,18,19,20-pentanor-6,9α-nitrilo-PGI1 methyl ester]: the inhibition in vivo at 1 mg/kg in data set [1] (setting [7]) came to 45.5%; in data set [1] (setting [8]), 15.6%.

Consider `CCCC1CCC([C@H](O)/C=C/[C@H]2[C@H](O)CC(=O)[C@@H]2CC(=O)CCCCC(=O)OC)CC1` (stereo partly shown) [Compound 11, 15-(4-Propylcyclohexyl)-16,17,18,19,20-pentanor-6-oxo-PGE1 methyl ester], for which the inhibition in vivo at 0.05 mg/kg in data set [1] (setting [5]) was 48.5%; in data set [1] (setting [6]) it was 45.1%.

Take `COC(=O)CCCCC(=O)C[C@H]1C(=O)C[C@@H](O)[C@@H]1/C=C/[C@@H](O)C1CCC(C)CC1` (stereo partly shown) [Compound 9, 15-(4-Methylcyclohexyl)-16,17,18,19,20-pentanor-6-oxo-PGE1 methyl ester]: the inhibition in vivo at 0.1 mg/kg in data set [1] (setting [3]) stood at 21%; in data set [1] (setting [4]), 0%. The inhibition in vivo at 0.05 mg/kg in data set [1] (setting [5]) was found to be 13.1%; in data set [1] (setting [6]), 8.8%.

`CCC1CCC([C@H](O)/C=C/[C@H]2[C@H](O)CC(=O)[C@@H]2CC(=O)CCCCC(=O)OC)CC1` (stereo partly shown) [Compound 10, 15-(4-Ethylcyclohexyl)-16,17,18,19,20-pentanor-6-oxo-PGE1 methyl ester]: the inhibition in vivo at 0.05 mg/kg in data set [1] (setting [5]) was 35.6%; in data set [1] (setting [6]), 12.2%.
